Source: patent US6569878B1, “Substituted 4-amino-thiazol-2-yl compounds as cyclin-dependent kinase inhibitors” (Agouron Pharmaceuticals Inc., priority 1997, dated 2003)
Where a name gives a salt, the structure may show the parent alone.

How the values were obtained:
U2-OS = test: Inhibition of cell growth, MTT assay, U2-OS; type: cell-based; settings: for IC50 / IC90: Homo sapiens, U2OS; for % inhibition of growth in parentheses after >25: concentration not given
Experimental: (§1) The water-insoluble purple formazan product was then detected spectrophotometrically. […] Plates were incubated for four hours before addition of inhibitor compounds. Different concentrations of inhibitor compounds were added in 0.5% (v/v) dimethylsulfoxide (15 μL/well), and cells were incubated at 37° C. (5% CO2) for four to six days (depending on cell type). At the end of the incubation, MTT was added to a final concentration of 0.2 mg/mL, and cells were incubated for 4 hours more at 37° C. After centrifugation of the plates and removal of medium, the absorbance of the formazan (solubilized in dimethylsulfoxide) was measured at 540 nm.

[1] = biological target: T1, human CDK1 (cdc2) and cyclin B (Homo sapiens, UniProt P06493); test: Inhibition of CDK1(cdc2)/cyclin B histone H1 kinase activity; type: biochemical; settings: read-out: Ki CDK 1/B
T1 construct: purchased New England Biolabs (Beverly Mass.)
T1 sequence (P06493 whole entry): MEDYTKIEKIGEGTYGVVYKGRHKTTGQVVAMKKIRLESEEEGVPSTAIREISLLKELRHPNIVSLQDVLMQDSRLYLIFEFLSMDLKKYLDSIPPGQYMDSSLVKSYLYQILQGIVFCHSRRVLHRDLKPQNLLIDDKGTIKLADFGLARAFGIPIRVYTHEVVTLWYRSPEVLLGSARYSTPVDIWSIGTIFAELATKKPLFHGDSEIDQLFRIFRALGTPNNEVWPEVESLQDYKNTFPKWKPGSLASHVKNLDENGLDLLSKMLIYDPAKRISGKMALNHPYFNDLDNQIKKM
T1 sequence (P14635 whole entry partner): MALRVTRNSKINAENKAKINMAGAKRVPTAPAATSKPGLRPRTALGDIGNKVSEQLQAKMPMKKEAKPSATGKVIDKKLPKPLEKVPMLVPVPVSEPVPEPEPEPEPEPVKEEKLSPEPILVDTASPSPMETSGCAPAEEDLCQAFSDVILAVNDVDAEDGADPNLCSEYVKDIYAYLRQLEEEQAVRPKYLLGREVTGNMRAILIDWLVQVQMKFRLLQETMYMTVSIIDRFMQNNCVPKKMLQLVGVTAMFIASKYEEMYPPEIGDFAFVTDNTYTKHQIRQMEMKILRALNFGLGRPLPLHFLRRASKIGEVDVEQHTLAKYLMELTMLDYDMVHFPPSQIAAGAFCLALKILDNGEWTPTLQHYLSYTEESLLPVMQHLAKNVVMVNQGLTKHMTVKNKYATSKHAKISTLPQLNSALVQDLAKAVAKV
Experimental: Cyclin-dependent kinase activity was measured by quantifying the enzyme-catalyzed, time-dependent incorporation of radioactive phosphate from [^32P]ATP or [^33P]ATP into a protein substrate. Unless noted otherwise, assays were performed in 96-well plates in a total volume of 50 μL, in the presence of 10 mM HEPES (N-[2-hydroxyethyl]piperazine-N′-[2-ethanesulfonic acid]) (pH 7.4), 10 mM MgCl2, 25 μM adenosine triphosphate (ATP), 1 mg/mL ovalbumin, 5 μg/mL leupeptin, 1 mM dithiothreitol, 10 mM β-glycerophosphate, 0.1 mM sodium vanadate, 1 mM sodium fluoride, 2.5 mM ethylene glycol-bis(β-aminoethyl ether)-N,N,N′N′-tetraacetic acid (EGTA), 2% (v/v) dimethylsulfoxide, and 0.03-0.4 μCi [^32/33P]ATP per reaction. Reactions were initiated with enzyme, incubated at 30° C., and terminated after 20 minutes by the addition of ethylenediaminetetraacetic acid (EDTA) to 250 mM. The phosphorylated substrate was then captured on a nitrocellulose or phosphocellulose membrane using a 96-well filtration manifold, and unincorporated radioactivity was removed by repeated washing with 0.85% phosphoric acid. Radioactivity was quantified by exposing the dried membranes to a phosphorimager.
Apparent Ki values were measured by assaying enzyme activity in the presence of different inhibitor compound concentrations and subtracting the background radioactivity measured in the absence of enzyme. The kinetic parameters (kcat, Km for ATP) were measured for each enzyme under the usual assay conditions by determining the dependence of initial rates on ATP concentration. Inhibition data were fit to an equation for competitive inhibition using Kaleidagraph (Synergy Software), or were fit to an equation for competitive tight-binding inhibition using the software KineTic (BioKin, Ltd.).
The complex of human CDK1 (cdc2) and cyclin B was purchased from New England Biolabs (Beverly Mass.). Alternatively, a CDK1/glutathione-S-transferase-cyclin B1 complex was purified using glutathione affinity chromatography from insect cells that had been co-infected with the corresponding baculovirus expression vectors. The assay was executed as described above at 30° C. using 2.5 units of cdc2/cyclin B, 10 μg Histone H1 protein, and 0.1-0.3 μCi [^32/33P]ATP per assay. Phosphorylated histone substrate was captured by microfiltration on a phosphocellulose P81 membrane and quantified using a phosphorimager as described above. Ki values were measured using the described curve-fitting programs.

CDK2/cyclin A = biological target: T2, CDK2/cyclin A (Homo sapiens, UniProt P24941); test: Inhibition of CDK2/cyclin A retinoblastoma kinase activity; type: biochemical; settings: read-out: Ki CDK 2/A
T2 construct: made in house; host or cells: CDK2: insect cells (baculovirus); cyclin A: E. coli, then limited proteolysis
In short: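 Baculovirus-expressed CDK2 with excess proteolyzed cyclin A (or purified complex), 150 nM or 5 nM, phosphorylating an Rb fragment with 25 μM [32/33P]ATP, pH 7.4, 30° C, 20 min. Filter-captured radioactivity by phosphorimager; apparent Ki from fits to competitive or tight-binding competitive inhibition using measured ATP Km.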

[2] = biological target: T3, complex of human CDK4 and cyclin D3 (Homo sapiens, UniProt P11802); test: Inhibition of CDK4/cyclin D retinoblastoma kinase activity (D-type cyclin is D3); type: biochemical; settings: superscript a: D-type cyclin is D3; apparent Ki; read-out: Ki CDK 4/D
T3 construct: made in house; host or cells: insect cells, co-infected with baculovirus
T3 sequence (P11802 whole entry): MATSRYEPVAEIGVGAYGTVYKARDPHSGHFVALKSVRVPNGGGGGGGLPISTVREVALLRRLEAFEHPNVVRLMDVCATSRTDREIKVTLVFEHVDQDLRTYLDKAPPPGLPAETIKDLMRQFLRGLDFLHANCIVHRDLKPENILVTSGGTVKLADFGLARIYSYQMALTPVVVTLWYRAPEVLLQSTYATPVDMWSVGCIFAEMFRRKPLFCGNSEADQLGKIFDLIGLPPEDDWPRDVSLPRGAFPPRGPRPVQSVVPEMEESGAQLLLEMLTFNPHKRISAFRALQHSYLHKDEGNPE
T3 sequence (P30281 whole entry partner): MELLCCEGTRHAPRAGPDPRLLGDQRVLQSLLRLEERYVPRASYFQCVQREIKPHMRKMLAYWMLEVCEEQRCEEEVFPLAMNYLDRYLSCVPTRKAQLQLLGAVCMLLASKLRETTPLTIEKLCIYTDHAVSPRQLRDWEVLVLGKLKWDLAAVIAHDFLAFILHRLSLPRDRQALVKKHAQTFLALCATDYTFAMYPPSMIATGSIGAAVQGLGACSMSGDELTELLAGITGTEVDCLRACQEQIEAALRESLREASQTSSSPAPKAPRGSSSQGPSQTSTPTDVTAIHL
In short: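 Radiometric assay: [32P]- or [33P]ATP phosphate incorporation into Rb substrate at 30°C for 20 min, stopped with EDTA, filter-captured and phosphorimaged.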

Saos-2 = test: Inhibition of cell growth, MTT assay, Saos-2; type: cell-based; settings: Saos-2, MTT assay; for IC50 / IC90: Homo sapiens; for % inhibition of growth in parentheses after >25: concentration not given
Experimental: as §1

HCT116 = test: Inhibition of cell growth, MTT assay, HCT116; type: cell-based, human; settings: Homo sapiens, HCT-116
Experimental: as §1

Compound | IC50 (U2-OS) [nM] | IC90 (U2-OS) [nM] | Ki [1] [nM] | Ki (CDK2/cyclin A) [nM] | Ki [2] [nM] | IC50 (Saos-2) [nM] | IC90 (Saos-2) [nM] | IC50 (HCT116) [nM] | IC90 (HCT116) [nM] | % inhibition of growth in parentheses after >25 (U2-OS) | % inhibition of growth in parentheses after >25 (Saos-2)
CC(=O)c1ccc(Nc2nc(N)c(C(=O)c3ccccc3[N+](=O)[O-])s2)cc1 [C(24), 1-{4-[4-Amino-5-(2-nitro-benzoyl)-thiazol-2-ylamino]-phenyl}-ethanone] | 1900 | 3000 | 46 | 248 | 8 | 1400 | 2800 | 700 | 1500 |  | 
CC(=O)Nc1ccc(Cl)c(C(=O)c2sc(Nc3ccc(N4CCN(C)CC4)cc3)nc2N)c1Cl [C(86), N-(3-{4-Amino-2-[4-(4-methyl-piperazin-1-yl)-phenylamino]-thiazole-5-carbonyl}-2,4-dichloro-phenyl)-acetamide] | 14000 | 22000 | 1310 | 1100 | 15 | 12000 | 22000 | 6500 | 17000 |  | 
Nc1nc(Nc2ccc(N3CCNCC3)cc2)sc1C(=O)c1c(Cl)cc(Cl)cc1Cl [J(1), [4-Amino-2-(4-piperazin-1-yl-phenylamino)-thiazol-5-yl]-(2,4,6-trichloro-phenyl)-methanone] | 3500 | 5900 | 732 | 452 | 2.3 | 1000 | 5900 | 1300 | 3000 |  | 
Nc1nc(Nc2ccc(N3CCNCC3)cc2)sc1C(=O)c1c(Cl)cccc1Cl [H(3), [4-Amino-2-(4-piperazin-1-yl-phenylamino)-thiazol-5-yl]-(2,6-dichloro-phenyl)-methanone] | 3500 | 5800 | 472 | 405 | 2.4 | 1800 | 3000 | 880 | 2400 |  | 
Cc1cc([N+](=O)[O-])sc1C(=O)c1sc(Nc2ccc(S(N)(=O)=O)cc2)nc1N [C(95), 4-[4-Amino-5-(3-methyl-5-nitro-thiophene-2-carbonyl)-thiazol-2-ylamino]-benzenesulfonamide] | 3900 | 5800 | 75 | < 50 | 25 | 1800 | 4500 | 1500 | 3000 |  | 
CNS(=O)(=O)c1ccc(Nc2nc(N)c(C(=O)c3sccc3C)s2)cc1 [C(114), 4-[4-Amino-5-(3-methyl-thiophene-2-carbonyl)-thiazol-2-ylamino]-N-methyl-benzenesulfonamide] | 3000 | 5200 | 28 | 8.5 | 21 | 1300 | 4800 | 1100 | 2800 |  | 
CN1CCN(c2ccc(Nc3nc(N)c(C(=O)c4c(Cl)cncc4Cl)s3)cc2)CC1 [C(70), {4-Amino-2-[4-(4-methyl-piperazin-1-yl)-phenylamino]-thiazol-5-yl}-(3,5-dichloro-pyridin-4-yl)-methanone] | 5000 | 11000 | 1370 | 1120 | 2.8 | 5800 | 12000 | 2200 | 5900 |  | 
Nc1nc(Nc2ccc(N3CCOCC3)cc2)sc1C(=O)c1c(Cl)cccc1Cl [C(55), [4-Amino-2-(4-morpholin-4-yl-phenylamino)-thiazol-5-yl]-(2,6-dichloro-phenyl)-methanone] | 18000 | > 25000 | 504 | 493 | 8.5 | 17000 | > 25000 | 4300 | 17000 | (74%) | 69%
Nc1nc(Nc2ccc3nc[nH]c3c2)sc1C(=O)c1c(Cl)cc(C(F)(F)F)cc1Cl [C(37), [4-Amino-2-(1H-benzoimidazol-6-ylamino)-thiazol-5-yl]-(2,6-dichloro-4-trifluoromethyl-phenyl)-methanone] | 16000 | > 25000 | 233 | 310 | 7 | 14000 | > 25000 | 10000 | 25000 | (80%) | (70%)
CC(=O)N1CCN(c2ccc(Nc3nc(N)c(C(=O)c4sccc4C)s3)cc2)CC1 [C(98), 2-[4-(1-Acetyl-piperazine-4-yl)-phenylamino]-4-amino-thiazol-5-yl-(3-methyl-thiophen-2-yl)-methanone] | 2400 | 5200 | 720 | 565 | 27 | 2700 | 5300 | 1300 | 2900 |  | 
NC(=O)c1ccc(Nc2nc(N)c(C(=O)c3c(F)cccc3F)s2)cc1 [C(102), 4-[4-Amino-5-(2,6-difluoro-benzoyl)-thiazol-2-ylamino]-benzamide] | 3100 | 5400 | 17 | 49 | 21 | 880 | 2200 | 1100 | 2400 |  | 
Nc1nc(Nc2ccc(N3CCSCC3)cc2)sc1C(=O)c1c(F)cccc1F [C(119), [4-Amino-2-(4-thiomorpholin-4-yl-phenylamino)-thiazol-5-yl]-(2,6-difluoro-phenyl)-methanone] | 7800 | 12000 | 247 | 86 | 24 | 7000 | 13000 | 4000 | 7000 |  | 
Nc1ccc(Cl)c(C(=O)c2sc(Nc3ccc(N4CCNCC4)cc3)nc2N)c1Cl [H(2), (3-Amino-2,6-dichloro-phenyl)-[4-amino-2-(4-piperazin-1-yl-phenylamino)-thiazol-5-yl]-methanone Trihydrochloride] | 16000 | 21000 | 361 | 474 | 3.6 | 13000 | 22000 | 15000 | 25000 |  | 
Cc1ccsc1C(=O)c1sc(Nc2ccc(C(=O)C3COC(=O)[C@H]3N)cc2)nc1N (stereo partly drawn) [C(45), trans-3RS-Amino-4RS-{4-[4-amino-5-(3-methyl-thiophene-2-carbonyl)-thiazol-2-ylamino]-benzoyl}-dihydro-furan-2-one] | 5500 | 12000 | 249 | 103 | 51 | 2000 | 10000 | 2000 | 8000 |  | 
Nc1nc(Nc2ccc(N3CCNC(=O)C3)cc2)sc1C(=O)c1c(F)cccc1F [C(120), 4-{4-[4-Amino-5-(2,6-difluoro-benzoyl)-thiazol-2-ylamino]-phenyl}-piperazin-2-one] | 5700 | 11000 | 62 | 80 | 10.9 | 2600 | 5200 | 3500 | 6000 |  | 
